Experimental data reported in article PMC3183257 (Tuberculosis (Edinburgh, Scotland), 2011).
Values after ≈ are worked out from the molar mass of the structure shown.

How the values were obtained:
[1] = system: Vero cells; assay: Cell cytotoxicity assay using Vero cells, CellTiter-Glo luminescence
[2] = system: Mycobacterium tuberculosis H37Rv; assay: Mtb dose response; format: cell-based; settings: for IC90: Table 2, Mtb H37Rv dose response
[3] = system: tufted apple budmoth larvae (P. idaeusalis); settings: cited from earlier work

SMILES	IC90 [2] [µg/mL]	further results
O=C(OCn1nnc2ccccc2c1=O)c1ccccc1 [Compound 7a]	–	cytotoxicity [1]: > 40 µg/mL
Cc1cc(Nc2ccc(C)c(C)c2)n2ncc(-c3ccccc3)c2n1 [Compound 4e]	3.4 (≈ 10.4 µM)	–
COc1cccc(Nc2cc(C)nc3c(-c4ccccc4)cnn23)c1 [Compound 4b]	1.8 (≈ 5.45 µM)	–
CCOc1ccc(C(=O)Nc2nnc(-c3ccccn3)o2)cc1 [Compound 22a]	–	activity and toxicity in words ([2]; Mtb IC90 and Vero selectivity): potent and relatively non-toxic
Cc1cc(C)cc(Nc2cc(C)nc3c(-c4ccccc4)cnn23)c1 [Compound 4c]	2.7 (≈ 8.22 µM)	–
COP(=S)(OC)SCn1nnc2ccccc2c1=O [azinphosmethyl]	–	susceptibility of larvae [3]: susceptible
COc1ccccc1-c1cnn2c(Nc3cccc(Cl)c3)cc(C)nc12 [Compound 4a]	1.7 (≈ 4.66 µM)	–
NCC[C@H](O)C(=O)N[C@@H]1C[C@H](N)[C@@H](O[C@H]2O[C@H](CN)[C@@H](O)[C@H](O)[C@H]2O)[C@H](O)[C@H]1O[C@H]1O[C@H](CO)[C@@H](O)[C@H](N)[C@H]1O [amikacin, reference compound]	–	IC50 ([2]; Mycobacterium tuberculosis, H37RV): 0.13 µg/mL (≈ 0.222 µM); inhibition at 0.13 µg/mL ([2]; Mycobacterium tuberculosis, H37RV, read-out: inhibition of Mtb growth): 33 to 60%
Cc1cc(Nc2ccc(C)c(Cl)c2)n2ncc(-c3ccccc3)c2n1 [Compound 4d]	3.4 (≈ 9.75 µM)	–
